This is an account of results in patent publication US11807693B2 (priority 2014, dated 2023).

Where two headings read alike, the source gives them in different places. Starred links: 1 amine or outer side, 2 acyl side, 3 side chain; linkers in the order of their positions; H or OH if unused. Non-standard residues stand in square brackets, D forms with d. Residues, ends and D or L forms follow the SMILES beside them. *: point of attachment. dBip = N[C@H](Cc1ccc(-c2ccccc2)cc1)C(=O)O; Oic = O=C(O)[C@@H]1C[C@@H]2CCCC[C@@H]2N1; Phe(4-Cl) = N[C@@H](Cc1ccc(Cl)cc1)C(=O)O; Phe(4-I) = N[C@@H](Cc1ccc(I)cc1)C(=O)O; γGlu = O=C(O)[C@H](CCC(=O)[*:2])N[*:1]; NMeR = CN[C@@H](CCCNC(=N)N)C(=O)O; Tridecanoyl = CCCCCCCCCCCCC(=O)*; hArg = N=C(N)NCCCC[C@H](N)C(=O)O; Cha = N[C@@H](CC1CCCCC1)C(=O)O; NMeL = CN[C@@H](CC(C)C)C(=O)O; αMeL = CC(C)C[C@](C)(N)C(=O)O; β3hV = CC(C)[C@H](N)CC(=O)O; Nle = CCCC[C@H](N)C(=O)O; AEEA = NCCOCCOCC(=O)O; βAla = NCCC(=O)O

Series [1] is described as follows: In vitro stability in rat plasma. Format: in vitro ADME. An outline of the steps:
(§1)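 Apelin peptides were spiked at 5 μM final into rat plasma, liver homogenate or kidney homogenate and incubated at 37° C. for up to 4 hr. Aliquots were quenched with MeOH containing internal standard, centrifuged, and supernatants analyzed by high resolution LC-MS.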

Series [2] is described as follows: In vitro stability in rat kidney homogenate. The series is classed as in vitro ADME. The following applies: rat, tissue homogenate. As to the method:
Apelin peptides were spiked into rat plasma, liver homogenate, and kidney homogenate, which were obtained from commercial sources, to a final concentration of 5 μM. The samples were then incubated at 37° C. over a period of 4 hr. […] In a typical experiment, an aliquot of 100 μL of sample was taken from the incubation vial, followed by addition of 300 μL of MeOH containing internal standard. The quenched sample was centrifuged at 5500 g for 15 min after 15 min vortex in room temperature. The supernatant was then analyzed by high resolution LC-MS. […] In vitro plasma, […], and kidney stability results are shown below in Table 14.

Series [3] is described as follows: In vitro stability in rat liver homogenate. The following applies: tissue homogenate. The series is classed as in vitro ADME. An outline of the steps:
as §1

For a further series, the target named is T1, rat APJ receptor (Rattus norvegicus, UniProt Q9JHG3).
T1 construct: expressed in transfected cells
T1 sequence (Q9JHG3 1-377): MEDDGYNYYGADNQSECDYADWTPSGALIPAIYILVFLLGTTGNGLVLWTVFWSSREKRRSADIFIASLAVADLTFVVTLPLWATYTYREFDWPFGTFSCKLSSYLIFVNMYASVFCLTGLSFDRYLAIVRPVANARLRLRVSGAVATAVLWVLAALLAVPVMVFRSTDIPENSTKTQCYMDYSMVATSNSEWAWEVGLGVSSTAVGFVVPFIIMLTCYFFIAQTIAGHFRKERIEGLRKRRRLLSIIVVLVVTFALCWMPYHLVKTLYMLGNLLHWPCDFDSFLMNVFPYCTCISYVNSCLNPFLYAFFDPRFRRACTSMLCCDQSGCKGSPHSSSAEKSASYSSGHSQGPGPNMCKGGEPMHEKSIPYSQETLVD
The series can be described thus: [35S] GTPγS assay, rat APJ receptor. Format: biochemical. As to the method: The membranes were incubated with modified peptides in the assay buffer. […] Bound [^35S] GTPγS was separated from free radiolabel by filtration. The filter bound radioactivity was determined by liquid scintillation counting.

The mark [4] stands for this setting: rat APJ receptor, read-out: EC50 Rat APJ Receptor.
[5] abbreviates: Table 16, read-out: EC50 Rat APJ Receptor.

`CCCC[C@H](NC(=O)[C@@H]1CCCN1C(=O)CNC(=O)[C@H](CCCCN)NC(=O)[C@H](Cc1c[nH]cn1)NC(=O)[C@H](CO)NC(=O)[C@](C)(CC(C)C)NC(=O)[C@H](CCCCNC(=N)N)NC(=O)[C@]1(C)CCCN1C(=O)[C@H](CCCNC(=N)N)NC(=O)[C@H](CCC(N)=O)NC(C)=O)C(=O)N1CCC[C@H]1C(=O)N[C@@H](Cc1ccc(Cl)cc1)C(=O)O` [compound 69]: the fraction remaining at 4 h, 5 μM in series [1] and in series [2] was less than 1% each time.

In the case of `CCCCCCCCCCCCC(=O)N[C@@H](CCC(=O)NCCOCCOCC(=O)NCCOCCOCC(=O)N[C@@H](CCC(N)=O)C(=O)N[C@@H](CCCNC(=N)N)C(=O)N1CCC[C@H]1C(=O)N(C)[C@@H](CCCNC(=N)N)C(=O)N[C@@H](CC1CCCCC1)C(=O)N[C@@H](CO)C(=O)N[C@@H](Cc1c[nH]cn1)C(=O)N[C@@H](CCCCN)C(=O)NCC(=O)N1CCC[C@H]1C(=O)N[C@@H](CCCC)C(=O)N1CCC[C@H]1C(=O)N[C@@H](Cc1ccc(Cl)cc1)C(=O)O)C(=O)O` [compound 361] ({Tridecanoyl-γGlu-AEEA-AEEA}-QRP[NMeR][Cha]SHKGP[Nle]P[Phe(4-Cl)]-OH), the values for the amount remaining at 4 h, 5 μM in series [1], in series [3] and in series [2] were 34.5%, 1.5% and 0.5%, respectively.

Turning to `CCCCCCCCCCCCC(=O)N[C@@H](CCC(=O)NCCOCCOCC(=O)NCCOCCOCC(=O)N[C@@H](CCC(N)=O)C(=O)N[C@@H](CCCNC(=N)N)C(=O)N1CCC[C@H]1C(=O)N(C)[C@@H](CCCNC(=N)N)C(=O)N[C@H](CC(=O)N[C@@H](CO)C(=O)N[C@@H](Cc1c[nH]cn1)C(=O)N[C@@H](CCCCN)C(=O)NCC(=O)N1[C@H](C(=O)N[C@@H](CCCC)C(=O)N2CCC[C@H]2C(=O)N[C@@H](Cc2ccc(Cl)cc2)C(=O)O)C[C@@H]2CCCC[C@@H]21)C(C)C)C(=O)O` [compound 391] ({Tridecanoyl-γGlu-AEEA-AEEA}-QRP[NMeR][β3hV]SHKG[Oic][Nle]P[Phe(4-Cl)]-OH), the fraction remaining at 4 h, 5 μM came to 2% in series [1], 5% in series [3] and 2% in series [2].

Take `CCCC[C@H](NC(=O)[C@@H]1CCCN1C(=O)CNC(=O)[C@H](CCCCN)NC(=O)[C@H](Cc1c[nH]cn1)NC(=O)[C@H](CO)NC(=O)[C@](C)(CC(C)C)NC(=O)[C@H](CCCCNC(=N)N)NC(=O)[C@@H]1CCCN1C(=O)[C@@H](CCCNC(=N)N)NC(=O)[C@H](CCC(N)=O)NC(C)=O)C(=O)N1CCC[C@H]1C(=O)N[C@@H](Cc1ccc(Cl)cc1)C(=O)O` [compound 70]: the share remaining at 4 h, 5 μM is 86.1% in series [1] and 84.9% in series [3]. The EC50 at rat APJ receptor (setting [4]) is 9.74 nM.

The compound `CCCCCCCCCCCCC(=O)N[C@@H](CCC(=O)NCCOCCOCC(=O)NCCOCCOCC(=O)N[C@H](CCC(N)=O)C(=O)N[C@@H](CCCCNC(=N)N)C(=O)N1CCC[C@H]1C(=O)N[C@H](CCCNC(=N)N)C(=O)N[C@@H](CC1CCCCC1)C(=O)N[C@@H](CO)C(=O)N[C@@H](Cc1ccc(O)cc1)C(=O)N[C@@H](CCCCN)C(=O)NCC(=O)N1[C@H](C(=O)N[C@@H](CCCC)C(=O)N2CCC[C@H]2C(=O)N[C@@H](Cc2ccc(Cl)cc2)C(=O)O)C[C@@H]2CCCC[C@@H]21)C(=O)O` [compound 373] ({Tridecanoyl-γGlu-AEEA-AEEA}-[dQ][hArg]P[dR][Cha]SYKG[Oic][Nle]P[Phe(4-Cl)]-OH) came in with a fraction remaining at 4 h, 5 μM in series [2] of 64%.

Regarding `CC[C@H](NC(=O)[C@H](CC(N)=O)NC(=O)[C@H](Cc1c[nH]cn1)NC(=O)[C@H](CCCCN)NC(=O)[C@H](CCCNC(=N)N)NC(=O)[C@H](CC(C)C)NC(=O)[C@@H](N)CCCCN)C(=O)N[C@@H](CC(C)C)C(=O)N[C@@H](CCC(N)=O)C(=O)N[C@@H](CCCNC(=N)N)C(=O)N[C@@H](CCCNC(=N)N)C(=O)N[C@@H](CC)C(=O)N[C@@H](CCSC)C(=O)N1CCC[C@H]1C(=O)N[C@@H](CC(C)C)C(=O)N[C@@H](Cc1c[nH]cn1)C(=O)N[C@@H](CO)C(=O)N[C@@H](CCCNC(=N)N)C(=O)N[C@H](C(=O)N1CCC[C@H]1C(=O)N[C@@H](Cc1ccccc1)C(=O)N1CCC[C@H]1C(=O)O)C(C)C` [compound 14], the amount remaining at 4 h, 5 μM in series [1] and in series [3] was less than 1% each time. Besides, the EC50 on rat APJ receptor (setting [4]) was 32.4 nM.

In the case of `CCCCCC(=O)N[C@@H](CCC(=O)NCCOCCOCC(=O)NCCOCCOCC(=O)N[C@@H](CCC(N)=O)C(=O)N(C)[C@@H](CCCCNC(=N)N)C(=O)N1CCC[C@H]1C(=O)N(C)[C@@H](CCCNC(=N)N)C(=O)N[C@@](C)(CC(C)C)C(=O)N[C@@H](CO)C(=O)N[C@@H](Cc1c[nH]cn1)C(=O)N[C@@H](CCCCN)C(=O)NCC(=O)N1CCC[C@H]1C(=O)N[C@@H](CCCC)C(=O)N1CCC[C@H]1C(=O)N[C@@H](Cc1ccc(Cl)cc1)C(=O)O)C(=O)O` [compound 561], the fraction remaining at 4 h, 5 μM in series [1] and in series [3] was less than 1% throughout. Besides, at rat APJ receptor (setting [4]), the EC50 was found to be 5.94 nM.

For the compound `CCCCCCCCCCCCC(=O)N[C@@H](CCC(=O)NCCOCCOCC(=O)NCCOCCOCC(=O)N[C@@H](CCC(N)=O)C(=O)N[C@@H](CCCCNC(=N)N)C(=O)N1CCC[C@H]1C(=O)N(C)[C@@H](CCCNC(=N)N)C(=O)N[C@@](C)(CC(C)C)C(=O)N[C@@H](CO)C(=O)N[C@@H](Cc1c[nH]cn1)C(=O)N[C@@H](CCCCN)C(=O)NCC(=O)N1CCC[C@H]1C(=O)N[C@@H](CCCC)C(=O)N1CCC[C@H]1C(=O)N[C@@H](Cc1ccc(Cl)cc1)C(=O)O)C(=O)O` [compound 460], the EC50 at rat APJ receptor (setting [5]) was found to be 0.0627 nM.

In the case of `CCCCCCCCCCCCC(=O)N[C@@H](CCC(=O)NCCOCCOCC(=O)NCCOCCOCC(=O)N[C@@H](CCC(N)=O)C(=O)N[C@@H](CCCNC(=N)N)C(=O)N1CCC[C@H]1C(=O)N(C)[C@@H](CCCNC(=N)N)C(=O)N[C@@H](CC(C)C)C(=O)N[C@@H](CO)C(=O)N[C@@H](Cc1c[nH]cn1)C(=O)N[C@@H](CCCCN)C(=O)NCC(=O)N1[C@H](C(=O)N[C@@H](CCCC)C(=O)N2CCC[C@H]2C(=O)N[C@@H](Cc2ccc(Cl)cc2)C(=O)O)C[C@@H]2CCCC[C@@H]21)C(=O)O` [compound 352] ({Tridecanoyl-γGlu-AEEA-AEEA}-QRP[NMeR]LSHKG[Oic][Nle]P[Phe(4-Cl)]-OH), the values for the amount remaining at 4 h, 5 μM in series [1] and in series [3] were 88% and 0%, respectively. The EC50 on rat APJ receptor (setting [5]) worked out at 0.23 nM.

`CCCCCCCCCCCCC(=O)N[C@@H](CCC(=O)NCCOCCOCC(=O)NCCOCCOCC(=O)N[C@@H](CCC(N)=O)C(=O)N[C@@H](CCCNC(=N)N)C(=O)N(C)[C@@H](CCCNC(=N)N)C(=O)N[C@@](C)(CC(C)C)C(=O)N[C@@H](CO)C(=O)N[C@@H](Cc1c[nH]cn1)C(=O)N[C@@H](CCCCN)C(=O)NCC(=O)N1[C@H](C(=O)N[C@@H](CCCC)C(=O)N2CCC[C@H]2C(=O)N[C@@H](Cc2ccc(Cl)cc2)C(=O)O)C[C@@H]2CCCC[C@@H]21)C(=O)O` [compound 396] ({Tridecanoyl-γGlu-AEEA-AEEA}-QR[NMeR][αMeL]SHKG[Oic][Nle]P[Phe(4-Cl)]-OH): the amount remaining at 4 h, 5 μM in series [1] was more than 90%; in series [3], less than 1%. Further, on rat APJ receptor (setting [5]), the concentration giving a half-maximal response (EC50) is 1.14 nM.

Consider `CCCCCCCCCCCCC(=O)N[C@@H](CCC(=O)NCCOCCOCC(=O)NCCOCCOCC(=O)N[C@@H](CCC(N)=O)C(=O)N[C@@H](CCCNC(=N)N)C(=O)N1CCC[C@H]1C(=O)N(C)[C@@H](CCCNC(=N)N)C(=O)N[C@@H](CC(C)C)C(=O)N[C@@H](CO)C(=O)N[C@@H](Cc1c[nH]cn1)C(=O)NCCC(=O)NCC(=O)N1CCC[C@H]1C(=O)N[C@@H](CCCC)C(=O)N1CCC[C@H]1C(=O)N[C@@H](Cc1ccc(Cl)cc1)C(=O)O)C(=O)O` [compound 424] ({Tridecanoyl-γGlu-AEEA-AEEA}-QRP[NMeR]LSH[βAla]GP[Nle]P[Phe(4-Cl)]-OH), for which the fraction remaining at 4 h, 5 μM is 2% in series [1] and less than 1% in series [3]. Moreover, on rat APJ receptor (setting [5]), the EC50 turned out to be 17.2 nM.

For `CC(=O)N[C@@H](CCCCNC(=N)N)C(=O)N[C@@H](CCCCNC(=N)N)C(=O)N[C@@H](CCC(N)=O)C(=O)N[C@@H](CCCCNC(=N)N)C(=O)N1[C@H](C(=O)N[C@H](CCCNC(=N)N)C(=O)N(C)[C@@H](CC(C)C)C(=O)N[C@@H](CO)C(=O)N[C@@H](Cc2c[nH]cn2)C(=O)N[C@@H](CCCCN)C(=O)NCC(=O)N2[C@H](C(=O)N[C@@H](Cc3ccc(I)cc3)C(=O)N3CCC[C@H]3C(=O)N[C@H](Cc3ccc(-c4ccccc4)cc3)C(=O)O)C[C@@H]3CCCC[C@@H]32)C[C@@H]2CCCC[C@@H]21` [compound 21] (Ac-[hArg][hArg]Q[hArg][Oic][dR][NMeL]SHKG[Oic][Phe(4-I)]P[dBip]-OH), the EC50 at rat APJ receptor (read-out: EC50 Rat APJ Receptor) worked out at 1.8 nM.

In general, share remaining refers to the share of the starting amount still present when the sample was taken. Low values mean more turnover, high ones less turnover. Broadly, the EC50 is the midpoint of the concentration-response curve.
